From PubChem BioAssay AID2060494 (Molecular Pharmacology Branch, DTP, NCI, 2025)

Test system: 435261-313-R-J1-PDC complex spheroid viability
Experiment: Anticancer human tumor 435261-313-R-J1-PDC patient-derived colon adenocarcinoma cell line growth inhibition [GQUAD]
Conditions: for IC50: curve of first compound; for viability, T/C: stronger effect = lower value
From the text: DNA G-quadruplex Stabilizer Agents in Combinations in Complex Spheroids
A high-throughput screen of multi-cell type tumor spheroids was designed to identify active combinations of DNA G-quadruplex stabilizer agents and targeted small molecules. Complex spheroids include a stromal component modeled by human endothelial cells (HUVEC) and fibroblasts modeled by human mesenchymal stem cells (MSCs). The concentration ranges selected for each drug and investigational agent were based upon clinically achievable concentrations if the clinical Cmax of the agent was known.
Compounds. The drugs and investigational agents: pidnarulex (CX-5461; NSC782164), APTO-253 (NSC789042), BRACO-19 (NSC847499), peposertib (NSC802822), ceralasertib (NSC780249), elimusertib (NSC800525), camonsertib (NSC841442), AZD-1390 (NSC803789), olaparib (NSC753686), talazoparib (NSC767125), ART-558 (NSC835418), sotorasib (NSC818433), MRTX-1133 (NSC836407), SN-38 (NSC673596), topotecan (NSC609699), etoposide (NSC141540), doxorubicin (NSC123127), gemcitabine (NSC613327), 5-fluorouracil (NSC19893), paclitaxel (NSC125973), vemurafenib (NSC761431), panobinostat (NSC761190), R-306465 (JNJ-16241199; NSC773264), adavosertib (NSC754352), TP-3654 (NSC805149), carboplatin (NSC241240), KSQ-4279 (NSC840948), and staurosporine (NSC755774) were obtained from the National Cancer Institute (NCI) Developmental Therapeutics Program Chemical Repository (34). The FDA-approved anticancer drug set is available from the NCI Developmental Therapeutics Program. […] The stock solutions were prepared in dimethyl sulfoxide (DMSO, Sigma-Aldrich, St. Louis, MO, cat. D2650) at 800-fold the tested concentration and stored at -70 degrees C prior to their use. All drugs and investigational agents were tested over a range starting from a high concentration at or near the clinical Cmax and decreasing in half-log increments. If the clinical Cmax for an agent had not been determined, the highest concentration tested was 10 microM.
2.3 Cell Culture. All cells were maintained in an incubator at 37 degrees C and 5% CO2 with 95% humidity. The PDC lines were cultured according to standard operating procedures established by the NCI PDMR. All PDCs were thawed and cultured in Matrigel-coated flasks prepared with a working solution of 1X Ham's F-12 nutrient mix, without supplementation (Invitrogen, cat. 11765054), 100 U/mL penicillin-streptomycin (Invitrogen, cat. 15140122), and 2.5% Matrigel (Corning Inc., cat. 354248) for the first three passages. The 857933-349-R-J2-PDC line was cultured in 6C/Colon 1B media, which includes advanced DMEM/F-12 (Thermo Fisher Scientific, cat. 12634028), 10 mM HEPES (Thermo Fisher Scientific, cat. 15630080), 1X GlutaMAX supplement (Thermo Fisher Scientific, cat. 35050061), 0.1 mg/mL primocin (InvivoGen, cat. ant-pm-2), 10% defined fetal bovine serum, heat inactivated (HyClone Laboratories Inc., cat. SH30070.03HI), 50% L-WRN conditioned media (ATCC, cat. CRL-3276), 1.25 mM N-Acetyl-L-cysteine (Sigma-Aldrich, cat. A9165), 10 mM nicotinamide (Sigma-Aldrich, cat. N0636), 1X B-27 supplement (Thermo Fisher Scientific, cat. 17504044), 1X N-2 supplement (Thermo Fisher Scientific, cat. 17502048), 10 microM Y-27632 dihydrochloride (Tocris Bioscience, cat. 1254), and 50 ng/mL human EGF recombinant protein (Thermo Fisher Scientific, cat. PHG0311). The 485176-168-R4-J1-PDC line was cultured in Panc media, which includes all 6C/Colon 1B media components plus 100 ng/mL human FGF-10 (Thermo Fisher Scientific, cat. 100-26), 500 nM SB-431542 (Selleckchem, cat. S1067), and gastrin (Tocris, cat. 3006).
[…]

[1] = second compound 0.0316 µM, first compound 0.0316 µM
[2] = second compound 0.0316 µM, first compound 0.316 µM
[3] = second compound 0.1 µM, first compound 0.0316 µM
[4] = second compound 0.1 µM, first compound 0.316 µM
[5] = second compound 0.316 µM, first compound 0.0316 µM
[6] = second compound 0.316 µM, first compound 0.316 µM
[7] = second compound 1 µM, first compound 0.0316 µM
[8] = second compound 1 µM, first compound 0.316 µM
[9] = second compound 3.16 µM, first compound 0.0316 µM
[10] = second compound 3.16 µM, first compound 0.316 µM
[11] = second compound 10 µM, first compound 0.0316 µM
[12] = second compound 10 µM, first compound 0.316 µM
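Also: spheroids exposed to the agents for seven days before readout.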
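For viability, T/C in this document: percent of vehicle control viability with DMSO wells as 100%.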

`Cc1[nH]c2ccccc2c1CCNCc1ccc(/C=C/C(=O)NO)cc1` + Cc1[nH]c2ccc(F)cc2c1-c1nc2c3cccnc3c3ncccc3c2[nH]1 was tested, and the IC50 (second compound 0.0316 µM) was 97.9 nM, the IC50 (second compound 0.1 µM) was 105 nM and the IC50 (second compound 0.316 µM) was 77.9 nM. The IC50 (second compound 1 µM) was 106 nM, the IC50 (second compound 3.16 µM) was < 0.999 nM and the IC50 (second compound 10 µM) was < 0.999 nM. For the same compound, the viability, T/C (second compound 0.0316 µM, first compound 0.000999 µM) was 86%, the viability, T/C (second compound 0.0316 µM, first compound 0.00316 µM) was 70.3% and the viability, T/C (second compound 0.0316 µM, first compound 0.00999 µM) was 77.2%. The viability, T/C [1] was 98.1%, the viability, T/C (second compound 0.0316 µM, first compound 0.0999 µM) was 49.4% and the viability, T/C [2] was 4.41%. The viability, T/C (second compound 0.1 µM, first compound 0.000999 µM) was 91.7%, the viability, T/C (second compound 0.1 µM, first compound 0.00316 µM) was 65.4% and the viability, T/C (second compound 0.1 µM, first compound 0.00999 µM) was 96.8%. For the same compound, the viability, T/C [3] was 66.1%, the viability, T/C (second compound 0.1 µM, first compound 0.0999 µM) was 53.1% and the viability, T/C [4] was 11.9%. It also gave a viability, T/C (second compound 0.316 µM, first compound 0.000999 µM) of 64.1%, a viability, T/C (second compound 0.316 µM, first compound 0.00316 µM) of 81.8% and a viability, T/C (second compound 0.316 µM, first compound 0.00999 µM) of 61.8%. It also gave a viability, T/C [5] of 68.1%, a viability, T/C (second compound 0.316 µM, first compound 0.0999 µM) of 45.2% and a viability, T/C [6] of 9.8%. For the same compound, the viability, T/C (second compound 1 µM, first compound 0.000999 µM) was 46.7%, the viability, T/C (second compound 1 µM, first compound 0.00316 µM) was 71.7% and the viability, T/C (second compound 1 µM, first compound 0.00999 µM) was 49.9%. The viability, T/C [7] was 58.6%, the viability, T/C (second compound 1 µM, first compound 0.0999 µM) was 52.1% and the viability, T/C [8] was 7.21%. It also gave a viability, T/C (second compound 3.16 µM, first compound 0.000999 µM) of 41.2%, a viability, T/C (second compound 3.16 µM, first compound 0.00316 µM) of 39.5% and a viability, T/C (second compound 3.16 µM, first compound 0.00999 µM) of 24.2%. The viability, T/C [9] was 33.8%, the viability, T/C (second compound 3.16 µM, first compound 0.0999 µM) was 26% and the viability, T/C [10] was 0.48%. The viability, T/C (second compound 10 µM, first compound 0.000999 µM) was 29.5%, the viability, T/C (second compound 10 µM, first compound 0.00316 µM) was 28.2% and the viability, T/C (second compound 10 µM, first compound 0.00999 µM) was 28.1%. It also gave a viability, T/C [11] of 33.3%, a viability, T/C (second compound 10 µM, first compound 0.0999 µM) of 27.8% and a viability, T/C [12] of 0.79%.

With `Nc1ccn(C2OC(CO)C(O)C2(F)F)c(=O)n1` (centres undefined) + Cc1[nH]c2ccc(F)cc2c1-c1nc2c3cccnc3c3ncccc3c2[nH]1 the IC50 (second compound 0.0316 µM) was 161 nM, the IC50 (second compound 0.1 µM) was < 31.6 nM and the IC50 (second compound 0.316 µM) was < 31.6 nM. The IC50 (second compound 1 µM) was < 31.6 nM, the IC50 (second compound 3.16 µM) was < 31.6 nM and the IC50 (second compound 10 µM) was < 31.6 nM. For the same compound, the viability, T/C [1] was 74%, the viability, T/C (second compound 0.0316 µM, first compound 0.1 µM) was 50.2% and the viability, T/C [2] was 47.9%. The viability, T/C (second compound 0.0316 µM, first compound 1 µM) was 42%, the viability, T/C (second compound 0.0316 µM, first compound 3.16 µM) was 57.9% and the viability, T/C (second compound 0.0316 µM, first compound 10 µM) was 51.1%. It also gave a viability, T/C [3] of 53.2%, a viability, T/C (second compound 0.1 µM, first compound 0.1 µM) of 45.5% and a viability, T/C [4] of 42.1%. It also gave a viability, T/C (second compound 0.1 µM, first compound 1 µM) of 49.5%, a viability, T/C (second compound 0.1 µM, first compound 3.16 µM) of 50.3% and a viability, T/C (second compound 0.1 µM, first compound 10 µM) of 51.9%. It also gave a viability, T/C [5] of 39.5%, a viability, T/C (second compound 0.316 µM, first compound 0.1 µM) of 50% and a viability, T/C [6] of 46.3%. It also gave a viability, T/C (second compound 0.316 µM, first compound 1 µM) of 44%, a viability, T/C (second compound 0.316 µM, first compound 3.16 µM) of 48.1% and a viability, T/C (second compound 0.316 µM, first compound 10 µM) of 33.1%. For the same compound, the viability, T/C [7] was 50.4%, the viability, T/C (second compound 1 µM, first compound 0.1 µM) was 40.6% and the viability, T/C [8] was 42.1%. For the same compound, the viability, T/C (second compound 1 µM, first compound 1 µM) was 34.7%, the viability, T/C (second compound 1 µM, first compound 3.16 µM) was 41.8% and the viability, T/C (second compound 1 µM, first compound 10 µM) was 35.5%. For the same compound, the viability, T/C [9] was 26.7%, the viability, T/C (second compound 3.16 µM, first compound 0.1 µM) was 31.9% and the viability, T/C [10] was 25.5%. For the same compound, the viability, T/C (second compound 3.16 µM, first compound 1 µM) was 24.7%, the viability, T/C (second compound 3.16 µM, first compound 3.16 µM) was 28.9% and the viability, T/C (second compound 3.16 µM, first compound 10 µM) was 25.9%. The viability, T/C [11] was 16.3%, the viability, T/C (second compound 10 µM, first compound 0.1 µM) was 19.1% and the viability, T/C [12] was 18%. It also gave a viability, T/C (second compound 10 µM, first compound 1 µM) of 20.2%, a viability, T/C (second compound 10 µM, first compound 3.16 µM) of 15.7% and a viability, T/C (second compound 10 µM, first compound 10 µM) of 18.7%.
